# Experimental data taken from patent US20230190707A1, “COMPOSITIONS AND METHODS FOR ENHANCING CANCER IMMUNOTHERAPY” (FRED HUTCHINSON CANCER CENTER, priority 2020, published 2023).
# How the values were obtained:
# [1] = mouse, in vivo
# Experimental: Animals were subcutaneously engrafted on bilateral flanks with tumor cells (MC38 1×10^6, B16-F10 0.5×10^6 and LLC 0.25×10^6 cells unless otherwise specified) on day 0, and treated continuously with splicing inhibitors (MS-023 50 mg/kg i.p., indisulam 25 mg/kg i.v. or vehicle) daily for 5 of 7 weekly days starting from day +3 of tumor challenge. […] Mice were weighed weekly for weight-based drug dosing.
# H-2K^b = H-2K^b (Mus musculus, UniProt P01901); assay: MHC I immunoprecipitation and LC-MS/MS, H-2K^b; assay type: cell-based
# From the text: (§1) Peptide-MHC complexes were isolated as previously described (Abelin, J. G., et al. (2017). Mass Spectrometry Profiling of HLA-Associated Peptidomes in Mono-allelic Cells Enables More Accurate Epitope Prediction. Immunity 46, 315-326, incorporated herein by reference in its entirety), with the following modifications: anti-mouse H-2D^b (clone B22-249.R1, CedarLane laboratories, Cat. CL9001AP) or H-2K^b (clone Y-3, BioXCell Cat. BE0172) non-covalently linked to GammaBind Plus Sepharose beads were co-incubated with soluble lysates overnight. […]
# (§2) Desalted, dried samples enriched for MHC peptides were resolubilized in 8 uL 0.10% TFA and 3 uL were loaded onto a packed-in-emitter 12 cm/75 um ID/3 um C18 particles column (Nikkyo Technos Co., Ltd. Japan). […] Precursor mass spectra were recorded from m/z 300-1500 m/z range at 60,000 resolution. […] MS/MS spectra were recorded at 30,000 resolution and lowest mass set at m/z 110. […] All experiments were recorded in FT-mode.
# (§3) Mass spectra from all MHC immunoprecipitations were analyzed using Proteome Discoverer v2.4.1.15, with the following workflow. […]
# [2] = system: B16-F10, MC38, and CT26 cells; assay: In vitro growth after ex vivo indisulam treatment and drug washout; assay type: cell-based, mouse; conditions: ex vivo 1 μM for four days followed by drug washout
# Experimental: Unless otherwise specified, cell lines were treated with splicing inhibitors at the indicated concentrations for 96 hours in vitro, harvested and washed three times with PBS in excess to remove all drug, and then used for downstream analyses and/or subsequent studies, including phenotyping, RNA-seq analyses, continued growth in vitro, or tumor challenge in vivo into syngeneic animals.
# CD8^+ T cells = assay: IFNγ ELISpot with indisulam-treated B16-F10 cells as antigen-presenting cells; assay type: cell-based, mouse; conditions: B16-F10 treated with indisulam 1 μM for 96 hours
# Experimental: Such cells were then non-enzymatically harvested, washed repeatedly to remove IFNγ, and irradiated to 60 Gy from a ^60Co source to inhibit growth and further upregulate MHC I. […] IFNγ ELISpot was performed as per manufacturer's instructions (BD Biosciences, Cat. 551083). Spots were imaged and quantified on an Immunospot® analyzer (Cellular Technology Limited, Cleveland, Ohio).
# H-2D^b = H-2D^b (Mus musculus, UniProt P01899); assay: MHC I immunoprecipitation and LC-MS/MS, H-2D^b; assay type: cell-based
# From the text: as §1, §2, §3
# H-2D^b, sequence (P01899 25-362 limits assumed): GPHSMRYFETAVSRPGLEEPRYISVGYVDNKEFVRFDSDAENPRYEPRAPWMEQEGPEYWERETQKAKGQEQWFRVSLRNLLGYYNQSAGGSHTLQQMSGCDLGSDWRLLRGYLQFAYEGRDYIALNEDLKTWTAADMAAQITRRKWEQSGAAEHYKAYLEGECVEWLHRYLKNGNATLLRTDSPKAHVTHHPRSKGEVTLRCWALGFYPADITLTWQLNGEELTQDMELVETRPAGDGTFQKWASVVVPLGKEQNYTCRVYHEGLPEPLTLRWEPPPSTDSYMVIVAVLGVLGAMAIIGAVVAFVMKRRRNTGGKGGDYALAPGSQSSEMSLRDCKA
# H-2K^b, sequence (P01901 22-369 limits assumed): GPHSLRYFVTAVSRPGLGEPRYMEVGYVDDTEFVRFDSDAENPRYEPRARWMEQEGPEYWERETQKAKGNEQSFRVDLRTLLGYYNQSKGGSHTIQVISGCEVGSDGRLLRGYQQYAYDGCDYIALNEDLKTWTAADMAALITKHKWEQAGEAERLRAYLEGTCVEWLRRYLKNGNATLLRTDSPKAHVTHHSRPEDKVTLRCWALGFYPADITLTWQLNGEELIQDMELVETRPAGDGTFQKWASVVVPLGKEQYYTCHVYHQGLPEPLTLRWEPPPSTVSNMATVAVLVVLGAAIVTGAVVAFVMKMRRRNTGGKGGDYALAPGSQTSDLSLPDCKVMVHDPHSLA
structure (smiles),measurement,setting,value
NS(=O)(=O)c1ccc(S(=O)(=O)Nc2cccc3c(Cl)c[nH]c23)cc1 [indisulam],"lymphocytes, neutrophils, or other peripheral blood counts",[1],negligible effects
same,peptides only recovered from indisulam-treated samples,H-2K^b; B16-F10 cells,366
same,bound peptides arising from mRNA isoforms specifically promoted by indisulam treatment,H-2K^b; intersection with RNA-seq,28
same,subsequent cell proliferation or apoptosis,[2],minimal effects
same,antigen-specific T cell activation by indisulam-treated B16-F10 cells,CD8^+ T cells,triggers antigen-specific T cell activation
same,peptides only recovered from indisulam-treated samples,H-2D^b; B16-F10 cells,518
same,bound peptides arising from mRNA isoforms specifically promoted by indisulam treatment,H-2D^b; intersection with RNA-seq,42
